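Test compounds were applied to cells in 96-well plates for 48 hours at 5 doses. GI50: concentration for 50% inhibition of growth.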 Activity calls are given as the source filed them. Rule as the data show it: active = GI50 up to about 1.1 µM and inactive = higher.
Columns and labels:
Assay in all cases: growth of human tumour cells (NCI), 48 h
Hs-578T = tested on: Hs-578T
DU-145 = tested on: DU-145
Malme-3M = tested on: Malme-3M
SR = tested on: SR
U-251 = tested on: U-251
HCC 2998 = tested on: HCC 2998
PC-3 = tested on: PC-3
NCI-H226 = tested on: NCI-H226
OVCAR-8 = tested on: OVCAR-8
A549 = tested on: A549
NCI-H460 = tested on: NCI-H460
SF-268 = tested on: SF-268
OVCAR-4 = tested on: OVCAR-4
HT-29 = tested on: HT-29
UACC-62 = tested on: UACC-62
COLO 205 = tested on: COLO 205
ACHN = tested on: ACHN
RXF 393 = tested on: RXF 393
SK-OV-3 = tested on: SK-OV-3
SF-539 = tested on: SF-539

Measured: GI50

O=C(NCCCN(CCCCN(CCCNC(=O)c1cc(S(=O)(=O)O)cc(O)c1O)C(=O)c1cc(S(=O)(=O)O)cc(O)c1O)C(=O)c1cc(S(=O)(=O)O)cc(O)c1O)c1cc(S(=O)(=O)O)cc(O)c1O
inactive: Hs-578T > 100 µM | DU-145 > 100 µM | Malme-3M > 100 µM | SR 60.4 µM | U-251 > 100 µM | HCC 2998 > 100 µM | PC-3 > 100 µM | NCI-H226 > 100 µM | OVCAR-8 > 100 µM | A549 > 100 µM | NCI-H460 > 100 µM | SF-268 > 100 µM | OVCAR-4 > 100 µM | HT-29 > 100 µM | UACC-62 > 100 µM | COLO 205 > 100 µM | ACHN > 100 µM

NC(=O)C1CCCN1Cc1ccc2c(c1)OCO2 (stereo not drawn)
inactive: Hs-578T > 100 µM | DU-145 > 100 µM | RXF 393 > 100 µM | Malme-3M > 100 µM | SK-OV-3 > 100 µM | SR > 100 µM | U-251 > 100 µM | PC-3 > 100 µM | SF-539 > 100 µM | NCI-H226 > 100 µM | OVCAR-8 > 100 µM | A549 > 100 µM | NCI-H460 > 100 µM | SF-268 > 100 µM | OVCAR-4 > 100 µM | HT-29 > 100 µM | UACC-62 > 100 µM | COLO 205 > 100 µM | ACHN > 100 µM

C1=C(c2ccccc2)NC2=N[C@H]3CCCC[C@@H]3N2C1c1ccccc1 (stereo partly drawn)
inactive: Hs-578T 17.2 µM | DU-145 16.1 µM | Malme-3M 12.8 µM | SK-OV-3 15.8 µM | SR 14.2 µM | U-251 13.4 µM | HCC 2998 14.4 µM | PC-3 11.4 µM | NCI-H226 13.4 µM | OVCAR-8 13.6 µM | NCI-H460 11 µM | SF-268 21.5 µM | OVCAR-4 10.1 µM | HT-29 3.51 µM | UACC-62 15 µM | COLO 205 11 µM | ACHN 13.7 µM

CCCC(=O)Nc1cc([N+](=O)[O-])c([N+](=O)[O-])cc1OC
inactive: Hs-578T 14.4 µM | DU-145 17.8 µM | SK-OV-3 13.9 µM | SR 5.18 µM | U-251 16.3 µM | PC-3 27.2 µM | SF-539 20 µM | NCI-H226 23.1 µM | OVCAR-8 16.3 µM | A549 13.7 µM | NCI-H460 13.3 µM | SF-268 16.3 µM | OVCAR-4 15.4 µM | HT-29 13.3 µM | UACC-62 18.2 µM | COLO 205 15.5 µM | ACHN 13.5 µM

COc1ccc(CC(=O)N2CCC3(C)CC(=O)CC=C23)cc1OC (stereo not drawn)
inactive: Hs-578T > 100 µM | DU-145 > 100 µM | RXF 393 > 100 µM | Malme-3M > 100 µM | SK-OV-3 > 100 µM | SR > 100 µM | U-251 > 100 µM | PC-3 > 100 µM | SF-539 > 100 µM | NCI-H226 > 100 µM | OVCAR-8 > 100 µM | A549 > 100 µM | SF-268 > 100 µM | OVCAR-4 > 100 µM | HT-29 > 100 µM | UACC-62 > 100 µM | COLO 205 > 100 µM | ACHN > 100 µM

Fc1c(F)c(C(F)(F)F)c(F)c(F)c1N/N=C/c1cn(Cc2ccccc2)c2ccccc12
inactive: Hs-578T 41.7 µM | DU-145 29.2 µM | RXF 393 17.7 µM | Malme-3M 30.4 µM | SK-OV-3 12.2 µM | SR 22.9 µM | U-251 34 µM | PC-3 27.4 µM | SF-539 20 µM | OVCAR-8 36.6 µM | A549 27.9 µM | NCI-H460 12.1 µM | SF-268 43.2 µM | OVCAR-4 23.4 µM | HT-29 18.2 µM | UACC-62 22.4 µM | COLO 205 13.5 µM | ACHN 26.7 µM

Cc1ccc2c(c1)C(=O)c1[nH]c3ccc(F)cc3c1CO2
inactive: Hs-578T 17.6 µM | DU-145 > 100 µM | Malme-3M 26.3 µM | SK-OV-3 15.1 µM | SR 49.8 µM | U-251 18.5 µM | HCC 2998 > 100 µM | PC-3 84.9 µM | SF-539 13.9 µM | NCI-H226 31.8 µM | OVCAR-8 15.8 µM | A549 62.2 µM | NCI-H460 33.9 µM | SF-268 48 µM | OVCAR-4 15.3 µM | HT-29 23.4 µM | UACC-62 24.4 µM | COLO 205 > 100 µM | ACHN 28.6 µM

O=C(O)c1ccccc1/C=N\N=C1NCCN1
inactive: Hs-578T > 100 µM | DU-145 > 100 µM | Malme-3M > 100 µM | SK-OV-3 > 100 µM | SR > 100 µM | U-251 > 100 µM | HCC 2998 > 100 µM | PC-3 > 100 µM | SF-539 > 100 µM | NCI-H226 21.6 µM | OVCAR-8 > 100 µM | A549 > 100 µM | NCI-H460 > 100 µM | SF-268 > 100 µM | OVCAR-4 > 100 µM | HT-29 > 100 µM | UACC-62 > 100 µM | COLO 205 > 100 µM | ACHN > 100 µM

O=C(c1cccnc1)N1N=C(c2ccccc2)CC1(O)c1cc(F)c(Cl)cc1Cl (stereo not drawn)
inactive: Hs-578T 27 µM | DU-145 32.1 µM | RXF 393 16.7 µM | Malme-3M 29.2 µM | SK-OV-3 23.7 µM | SR 22.5 µM | U-251 16.4 µM | PC-3 20.5 µM | SF-539 15.4 µM | NCI-H226 15.6 µM | OVCAR-8 25.5 µM | A549 27.6 µM | NCI-H460 18.6 µM | SF-268 30.5 µM | OVCAR-4 27 µM | HT-29 19.6 µM | COLO 205 14.1 µM | ACHN 23.2 µM

O=c1c2cc(S(=O)(=O)O)ccc2nc(COc2ccc(Oc3ccc(Cl)cc3Cl)cc2)n1C(=S)Nc1ccc(Cl)cc1
inactive: Hs-578T 20.6 µM | DU-145 27.7 µM | RXF 393 15 µM | Malme-3M 21.6 µM | SK-OV-3 21.3 µM | SR 1.53 µM | U-251 17.2 µM | PC-3 34.1 µM | SF-539 16.8 µM | NCI-H226 18.2 µM | OVCAR-8 21.6 µM | A549 20.5 µM | NCI-H460 17.9 µM | SF-268 16.3 µM | OVCAR-4 23.9 µM | HT-29 20.6 µM | UACC-62 15.8 µM | COLO 205 18 µM | ACHN 23.6 µM

O=c1[nH]c(=O)n(COCCO)cc1-c1ccccc1
inactive: Hs-578T > 100 µM | DU-145 > 100 µM | Malme-3M > 100 µM | SK-OV-3 > 100 µM | SR > 100 µM | U-251 > 100 µM | HCC 2998 > 100 µM | PC-3 > 100 µM | OVCAR-8 > 100 µM | A549 > 100 µM | NCI-H460 > 100 µM | SF-268 > 100 µM | OVCAR-4 > 100 µM | HT-29 > 100 µM | UACC-62 > 100 µM | COLO 205 > 100 µM | ACHN > 100 µM

From ChEMBL document CHEMBL1201862, “PubChem BioAssay data set” (2004)
